The source of these data is patent publication US9302993B2, “8-hydroxy quinoline derivatives” (PRANA BIOTECHNOLOGY LIMITED, priority 2002, dated 2016).

In one series the test system is Neuronal cortical cells. Description: Assay for test compound cytoxicity, MTS (Assay 3(d)). In kind it is cell-based, mouse. The settings on record: BL6J×129sv, mouse, 4 days, 10 uM. The protocol:
Media was then replaced with Neurobasal media (Invitrogen Life Technologies) and B27 supplements (Invitrogen Life Technologies). Cultures were maintained at 37° C. in 5% CO2. Prior to experimentation, the culture medium was replaced with Neurobasal media and B27 minus antioxidants (Invitrogen Life Technologies).
Cell viability is determined using the MTS assay. Culture medium is […] replaced with fresh neurobasal medium plus B27 supplements minus antioxidants. 1/10th volume MTS solution (Cell Titre 96 Aqueous One, Promega Corporation) and incubated at 37° C., 2 hrs. 200 microliter aliquots are measured with a spectrophotometer at 560 nm.
(d) Assay for Test Compound Cytoxicity
Neuronal cortical cells were cultured for five days as per Assay 2 in NB media and B27 supplement.
On day six the test compounds were added to the neuronal cell cultures in NB media and B27 supplement minus antioxidants.
Test compounds were dissolved in 100% DMSO to a concentration of 2.5 mM (10 mM if excess compound was weighed out per vial—then diluted to 2.5 mM). […] Test compounds were not added directly to cells, instead they were added to a 48 well ‘Drug Plate’ as comprised below:
The Drug Plate was incubated at 37° C. for 15 mins. 200 ul of each well was added in triplicate to the corresponding cell plate. The cell plate was incubated at 37 C, for 4 days.
On completion of the assay, 1/10 volume MTS was added per well of plate (ie 25 ul/250 ul). The plates were incubated at 37 C for 2 hrs, and then absorbance was read at 560 nm.

Series [1] deals with T1, hydrogen peroxide generation by Aβ in the presence of copper (Homo sapiens, UniProt P05067).
T1 construct: The reaction solutions contained Aβ 1-42 at concentrations in the range of 50 nM to 1 μM
T1 sequence (P05067 672-713 limits assumed): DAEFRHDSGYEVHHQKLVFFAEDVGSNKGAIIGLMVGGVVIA
As to the kind of experiment: Fluorometric H2O2 assay (Assay 1). In kind it is biochemical. The settings on record: DCF/HRP, 37 C 60 min, several values in one cell = repeat determinations. The protocol: Assay 1. Fluorometric H2O2 Assay
A fluorometric assay was used to test the ability of a test compound to inhibit hydrogen peroxide generation by Aβ in the presence of copper based on dichlorofluoroscein diacetate (DCF; Molecular Probes, Eugene Oreg.). The DCF solution (5 mM) in 100% dimethyl sulphoxide (previously purged with argon for 2 hr at 20° C.) was deacetylated in the presence of 0.25M NaOH for 30 min and neutralised at pH 7.4 to a final concentration of 1 mM. Horseradish peroxidase (HRP) stock solution was prepared to 1 μM at pH 7.4. The reactions were carried out in PBS, pH 7.4 in a 96 well plate (total volume=250 μl/well). The reaction solutions contained Aβ 1-42 at concentrations in the range of 50 nM to 1 μM, copper-glycine chelate (Cu-Gly), was prepared by adding CuCl2 to glycine in the ratio of 1:6 and added to the Aβ in the proportion 2Cu-Gly: 1Aβ), reducing agents including dopamine (5 μM) or ascorbic acid, deacetylated DCF 100 μM, and HRP, 0.1 μM. […] The reaction mixture was incubated at 37 C for 60 min. […] H2O2 concentration may be established by comparing fluorescence with the H2O2 standards. Inhibition of AB H2O2 production was assayed by including a given concentration of test compound(s) in the test wells.

Setting [2] is: Aβ 1-42 with Cu-Gly, read-out: Peroxide IC50.

The structures appear in SMILES notation. Values joined by “and” are separate entries in the source; they are usually repeats but may differ in a detail not shown here. Equal values may be shown once. Read-outs that look alike come from different tables or passages of the source. A value given as a limit tells only on which side of the number the result lay.

Broadly, the IC50 is the concentration needed to halve the response being measured. Take `Oc1c(-c2cc(F)cc(F)c2)cc(Cl)c2cccnc12` [compound 813]: in the series on Neuronal cortical cells, the “Viable 10 uM” value is 66. In series [1] (setting [2]), the IC50 was more than 10 µM.

On to `CNc1ccc2c(Cl)cc(Cl)c(O)c2n1` [compound 1047, 5,7-Dichloro-2-methylamino-8-hydroxyquinoline], for which the concentration for half-maximal inhibition (IC50) in series [1] (setting [2]) is more than 10 µM.

On to `COc1cccc(-c2cc(Cl)c3cccnc3c2OC(C)C)c1` [compound 801], for which the half-maximal inhibitory concentration (IC50) in series [1] (setting [2]) was more than 10 µM. Regarding `O=C(NCc1nccs1)c1ccc2cccc(O)c2n1` [compound 1019], the IC50 in series [1] (setting [2]) is more than 10 µM.

For `CC(C)Oc1c(I)cc(I)c2cccnc12` [compound 807], the IC50 in series [1] (setting [2]) was more than 10 µM. Take `O=Cc1ccccc1-c1cc(Cl)c2cccnc2c1O` [compound 849]: the “Viable 10 uM” value with Neuronal cortical cells came out at 98.83. Besides, in series [1] (setting [2]), the concentration for half-maximal inhibition (IC50) is 4.5 µM. Regarding `Oc1ccc(CCc2ccc3cccc(O)c3n2)cc1` [compound 91], in series [1] (setting [2]), the half-maximal inhibitory concentration (IC50) is 50 µM and > 10 µM. As for `Oc1c(-c2cc3ccccc3s2)cc(Cl)c2cccnc12` [compound 970], the “Viable 10 uM” value with Neuronal cortical cells came out at 32.33. In addition, in series [1] (setting [2]), the IC50 was 6.7 µM.

In the case of `Oc1cccc2cc3ccccc3nc12` [compound 1043], in series [1] (setting [2]), the 50% inhibitory concentration (IC50) is 0.64 µM.

On to `O=S(=O)(O)c1ccc2cccc(O)c2n1` [compound 50], for which, in series [1] (setting [2]), the IC50 was 90 µM.

On to `Oc1cccc2ccc(-n3ccnc3)nc12` [compound 965], for which the half-inhibitory concentration (IC50) in series [1] (setting [2]) was more than 10 µM. For `Oc1cccc2ccc(-n3cccn3)nc12` [compound 964, 2-pyrazol-1-yl-quinolin-8-ol], the IC50 in series [1] (setting [2]) was 7.1 µM. Consider `Oc1c(I)cc(-c2ccccc2F)c2cccnc12` [compound 865], for which the “Viable 10 uM” value in the series with Neuronal cortical cells is recorded as 34.07. Moreover, in series [1] (setting [2]), the IC50 was more than 10 µM. For the compound `CC(C)Oc1c(I)cc(Cl)c2cccnc12` [compound 804], the IC50 in series [1] (setting [2]) is more than 10 µM. For the compound `Cc1nccn1-c1ccc2cccc(O)c2n1` [compound 993], the concentration for half-maximal inhibition (IC50) in series [1] (setting [2]) is more than 10 µM.

`O=[N+]([O-])c1cccc(-c2cc(Cl)c3cccnc3c2O)c1` [compound 811]: the “Viable 10 uM” value in the series with Neuronal cortical cells came out at 78.46. For the same compound, the IC50 in series [1] (setting [2]) is more than 10 µM.

`O=S(=O)(NCCc1c[nH]cn1)c1ccc2cccc(O)c2n1` [compound 1035]: the IC50 in series [1] (setting [2]) was more than 10 µM. With `Oc1c(-c2ccccc2F)cc(Cl)c2cccnc12` [compound 815], the “Viable 10 uM” value in the series on Neuronal cortical cells worked out at 53.68. Further, in series [1] (setting [2]), the half-inhibitory concentration (IC50) was more than 10 µM. On to `Oc1c(-c2ccccc2)cc(Cl)c2cccnc12` [compound 808], for which the “Viable 10 uM” value in the series on Neuronal cortical cells is on record as 71.89. In series [1] (setting [2]), the IC50 was more than 10 µM. For the compound `CC(C)Oc1c(-c2ccccc2C=O)cc(Cl)c2cccnc12` [compound 867], the IC50 in series [1] (setting [2]) was more than 10 µM. As to `O=C(O)CNC(=O)c1ccc2cccc(O)c2n1` [compound 956], the “Viable 10 uM” value with Neuronal cortical cells worked out at 89. Also, the concentration for half-maximal inhibition (IC50) in series [1] (setting [2]) is more than 10 µM.

Turning to `Oc1c(-c2cccc(F)c2)cc(Cl)c2cccnc12` [compound 850], the “Viable 10 uM” value in the series on Neuronal cortical cells worked out at 71.28. For the same compound, in series [1] (setting [2]), the 50% inhibitory concentration (IC50) was more than 10 µM. For the compound `Oc1c(-c2ccc(F)cc2)cc(Cl)c2cccnc12` [compound 812], in the series on Neuronal cortical cells, the “Viable 10 uM” value was found to be 75.36. The IC50 in series [1] (setting [2]) was more than 10 µM. As to `CC(C)Oc1c(I)cc(-c2ccccc2F)c2cccnc12` [compound 856], the half-maximal inhibitory concentration (IC50) in series [1] (setting [2]) is more than 10 µM. Still for that read-out and setting: as for `CC(=O)Nc1ccc(O)c2ncccc12` [compound 1028], the figure is 0.32 µM; as for `Cc1ccccc1-c1cc(Cl)c2c(-c3ccccc3C)ccnc2c1OC(C)C` [compound 805], more than 10 µM. On to `O=C(O)c1cc(O)c2cccc(O)c2n1` [compound 52], for which, in series [1] (Peroxide IC50, Aβ 1-42 with Cu-Gly), the IC50 was more than 100 µM. Take `CC(C)Oc1c(-c2ccccc2C(F)(F)F)cc(Cl)c2cccnc12` [compound 827]: the half-inhibitory concentration (IC50) in series [1] (setting [2]) is more than 10 µM. For `Cc1ccccc1-c1cc(Cl)c2cccnc2c1OC(C)C` [compound 866], the concentration for half-maximal inhibition (IC50) in series [1] (setting [2]) was more than 10 µM. Still for that read-out and setting: next, `O=C(O)c1ccc2cccc(O)c2n1` [compound 57]: 40 µM; `COc1ccccc1-c1cc(I)c(OC(C)C)c2ncccc12` [compound 825]: more than 10 µM. Regarding `Oc1c(-c2ccc(F)cc2F)cc(Cl)c2cccnc12` [compound 973], in the series on Neuronal cortical cells, the “Viable 10 uM” value stood at 42.38. Also, in series [1] (setting [2]), the IC50 is more than 10 µM. The corresponding values for `Oc1c(-c2ccsc2)cc(Cl)c2cccnc12` [compound 972] are 30.59 and more than 10 µM. `CC(C)Oc1c(-c2cc(F)cc(F)c2)cc(Cl)c2cccnc12` [compound 820]: the IC50 in series [1] (setting [2]) is more than 10 µM. Same read-out and setting: as for `CC(C)Oc1c(-c2ccccc2F)cc(Cl)c2cccnc12` [compound 803], the figure is more than 10 µM; as for `COc1cccc2ccc(C(=O)NCCc3ccccn3)nc12` [compound 1022], more than 10 µM. Turning to `CC(C)Oc1c(F)cc(-c2cc(F)cc(F)c2)c2cccnc12` [compound 817], the 50% inhibitory concentration (IC50) in series [1] (setting [2]) was more than 10 µM. Consider `Oc1c(-c2cc(Cl)c3cccnc3c2O)cc(Cl)c2cccnc12` [compound 971], for which, in the series with Neuronal cortical cells, the “Viable 10 uM” value was 84.29. Also, in series [1] (setting [2]), the IC50 is more than 10 µM. Regarding `Brc1ccc(OCc2ccccc2)c2ncccc12` [compound 821], in series [1] (setting [2]), the IC50 was more than 10 µM.

For `Oc1ccc(F)c2cccnc12` [compound 1034], in series [1] (setting [2]), the 50% inhibitory concentration (IC50) came to 0.44 µM. Still for that read-out and setting: as for `CC(=O)Oc1ccc(-c2cc(Cl)c3cccnc3c2OC(C)C)s1` [compound 822], the figure is more than 10 µM. The same measure, in the same setting: next, `COc1ccccc1-c1cc(-c2ccccc2OC)c2cccnc2c1OC(C)C` [compound 824]: more than 10 µM. On to `CC(=O)NCc1ccc2cccc(O)c2n1` [compound 967], for which the “Viable 10 uM” value with Neuronal cortical cells is on record as 90.69. Besides, the IC50 in series [1] (setting [2]) is 7.8 µM. Turning to `CC(C)Oc1c(F)cc(-c2ccccc2)c2cccnc12` [compound 816], the IC50 in series [1] (setting [2]) is more than 10 µM.

Consider `CCOC(=O)c1ccccc1-c1ccc2cccc(O)c2n1` [compound 1004], for which the IC50 in series [1] (setting [2]) is > 10 µM and 6.6 µM. Consider `Nc1cnc2c(O)c(Cl)cc(Cl)c2c1` [compound 1060, 3-amino-5,7-dichloro-8-hydroxyquinoline], for which the IC50 in series [1] (setting [2]) was determined as 0.5 µM. With `CC(C)Oc1c(-c2ccc(F)cc2)cc(Cl)c2cccnc12` [compound 802], the IC50 in series [1] (setting [2]) was more than 10 µM. Consider `OCC1OC(Oc2cccc3cccnc23)[C@H](O)[C@@H](O)[C@H]1O` (some centres unmarked) [compound 62], for which the IC50 in series [1] (setting [2]) is more than 10 µM. Turning to `COc1ccc(-c2cc(Cl)c3cccnc3c2O)cc1` [compound 814], the “Viable 10 uM” value in the series with Neuronal cortical cells is recorded as 31.13. Consider `c1ccc(COc2cccc3cccnc23)cc1` [compound 855], for which the half-maximal inhibitory concentration (IC50) in series [1] (setting [2]) is more than 10 µM. The same measure, in the same setting: next, `CC(C)Oc1c(-c2cccc(F)c2)cc(Cl)c2cccnc12` [compound 858]: more than 10 µM; `CC(C)Oc1c(-c2ccccc2)cc(Cl)c2cccnc12` [compound 818]: more than 10 µM; `CC(C)Oc1c(I)cc(-c2ccc(C(F)(F)F)cc2)c2cccnc12` [compound 823]: more than 10 µM. Consider `CC(C)Oc1c(-c2ccc(N(C)C)cc2)cc(Cl)c2cccnc12` [compound 868], for which the IC50 in series [1] (setting [2]) is more than 10 µM. On the same count and under the same terms, next, `COc1ccccc1-c1cc(Cl)c2cccnc2c1OC(C)C` [compound 819]: more than 10 µM; `CC(C)Oc1c(-c2cccc([N+](=O)[O-])c2)cc(Cl)c2cccnc12` [compound 857]: more than 10 µM; `O=C(O)C1OC(Oc2cccc3cccnc23)[C@H](O)[C@@H](O)[C@H]1O` (some centres unmarked) [compound 39]: 90 µM. Same read-out and setting: as for `COc1ccc(-c2cc(Cl)c3cccnc3c2OC(C)C)cc1` [compound 800], the figure is more than 10 µM; as for `Cc1ccccc1-c1cc(I)c(OC(C)C)c2ncccc12` [compound 826], more than 10 µM. Consider `O=C(O)CNC(=O)c1cc(O)c2cccc(O)c2n1` [compound 992], for which the IC50 in series [1] (setting [2]) is more than 10 µM.
